Patent publication US10196403B2, “Compounds and compositions and uses thereof” (Sunovion Pharmaceuticals Inc., priority 2016, dated 2019)
Read-outs that look alike come from different tables or passages of the source.

Experiments:
Assay type in all cases: in vivo
[1] = system: mice; assay: Neuropharmacological Assay (SmartCube); conditions: for minimal effective dose: Mus musculus, read-out: POTENCY (minimal effective dose, MED); for AD: ADHD (SmartCube probability) / AG: analgesic (SmartCube probability) / AX: anxiolytic (SmartCube probability) / CE: cognitive enhancer (SmartCube probability) / DP: anti-depressant (SmartCube probability) / MS: mood stabilizer (SmartCube probability) / PS: anti-psychotic (SmartCube probability) / SD: sedative hypnotic (SmartCube probability) / UN: uncharacterized CNS activity (SmartCube probability): mice, i.p. 15 min before test, most efficacious dose(s) of 3 doses
In short: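 Behavior of treated mice captured by digital video and matched algorithmically against reference drug classes, yielding a class probability at the most efficacious of 3 i.p. doses (15 min pretreatment, NMP/PEG/propylene glycol vehicle). Potency given as MED, the mpk dose reaching ≥50% total activity across usually 0.3–30 mpk.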

[2] = system: Male Balb/cJ mice; assay: Forced Swim test (FST); conditions: 30 minute pretreatment; time immobile over 6 minute trial
Method: Forced Swim Test Procedures
The Forced Swim test (FST) is an indicator of the antidepressant-like activity of a test compound. Male Balb/cJ mice (26-31 g) were given a 30 minute pretreatment with vehicle (sterile water), sertraline control or test compound. The FST consists of one 6 minute session of forced swimming in individual opaque cylinders containing water at a temperature of 23±2° C. The mouse will swim before “giving up” and becoming immobile, the time spent immobile was recorded over the 6 minute trial. A compound with antidepressant-like activity will decrease the time the mouse is immobile over the 6 minute trial. Data were analyzed by analysis of variance (ANOVA) followed by post-hoc comparisons with Fisher Tests when appropriate.

[3] = system: Male C57Bl/6J mice; assay: Phencyclidine (PCP)-induced hyperlocomotion; conditions: PCP 2.5 mg/kg s.c.; distance traveled
Method: Phencyclidine (PCP)-Induced Hyperlocomotion
The PCP-induced hyperlocomotion assay is an indicator of antipsychotic-like activity. Male C57Bl/6J mice (20-26 g) were administered vehicle or test compound and placed in holding cages for 30 minutes, after which they were placed in the locomotor activity chambers for 30 minutes of baseline capture. The test chambers are Plexiglas rectangular chambers (24×45 cm) that fit inside two steel frames (9.5×18 inches) and are fitted with two-dimensional 4×8 beam grids to monitor horizontal and vertical locomotor activity. Total distance traveled was measured from horizontal beam breaks as the animal traveled. Following the 30 minute baseline period, all […] were injected with saline or PCP (2.5 mg/kg, s.c.) and returned to the locomotor activity chambers for a 60 minute test session. A compound with antipsychotic-like activity will decrease the distance traveled following administration of PCP. Data were analyzed by analysis of variance (ANOVA) followed by post-hoc comparisons with Fisher Tests when appropriate.

[4] = system: Male C57Bl/6J mice; assay: Amphetamine-induced hyperlocomotion assay; parameters: key: +++ = <1.0 mg/kg; ++ = 1-10 mg/kg; + = 10-30 mg/kg; NE = no effect; conditions: AMPH 4 mg/kg ip; stimulant-induced hyperactivity
Method: Amphetamine-Induced Hyperlocomotion Assay
Amphetamine (AMPH) is frequently used to induce or mimic a manic-like state. The antimanic-like effects of test compounds were evaluated in male C57Bl/6J mice. Mice were acclimatized to the experimental room for at least 1 hour prior to testing. The mice (n=10 per group) were administered vehicle or test compound and placed in the open field (OF) chambers for 30 minutes of baseline activity measurement. The mice were then injected with either water or AMPH (4 mg/kg, ip) and placed back in the OF chambers for a 60-minute testing session during which, the effects of test compounds on stimulant-induced hyperactivity behaviors (total distance traveled, rearing and stereotypy) were measured. Data were analyzed by analysis of variance (ANOVA) followed by post-hoc comparisons with Fisher Tests when appropriate.

[5] = system: Adult male AJ mice; assay: Tail suspension test (TST); parameters: key: +++ = <1.0 mg/kg; ++ = 1-10 mg/kg; + = 10-30 mg/kg; NE = no effect; conditions: oral gavage 30 min before test; time immobile
Description: The tail suspension test (TST) is a rodent screening test for potential (human) antidepressant drugs. It is based on the assumption that an animal will actively try to escape an aversive (stressful) stimulus. If escape is impossible, the animal will eventually stop trying (“give up”). In the TST, a mouse is suspended by the tail so that its body dangles in the air, head downward. Mice initially struggle to face upward and climb to a solid surface. When the animal stops struggling and hangs immobile it is considered to have “given up”. Shorter periods of immobility are characteristic of antidepressant-like activity. Accordingly, longer periods of immobility are considered indicative of a depressive-like state. It has been shown that treatment with an antidepressant drug will decrease the time the animal spends immobile. See generally L. Stem et al., Psychopharmacology (Berl). 1985; 85(3):367-70; B. Thierry et al., Psychopharmacology 1986; 90:284-85.
Procedure. Adult male AJ mice from Jackson Laboratories received vehicle (sterile water) or test compound orally by gavage, or the positive control desipramine (20 mg/kg, i.p.), in 10 mL/kg injection volumes, 30 min before being subjected to the Tail Suspension Test. In this test, mice are placed in the Tail Suspension chambers (white polyvinylchloride cubicles measuring 33×33×31.75 cm Med Associates, Inc. St. Albans, Vt.) by a piece of transparent (Scotch®) tape attached to the tail, from about the mid-tail, with approximately 2 cm of tape past the end of the tail for 10 min during which the time spent immobile is measured. A reduction in total time immobile relative to the vehicle condition indicates an antidepressant drug-like response.

SMILES | minimal effective dose [1] [mg/kg] | AD: ADHD (SmartCube probability) [1] | AG: analgesic (SmartCube probability) [1] | AX: anxiolytic (SmartCube probability) [1] | CE: cognitive enhancer (SmartCube probability) [1] | DP: anti-depressant (SmartCube probability) [1] | MS: mood stabilizer (SmartCube probability) [1] | PS: anti-psychotic (SmartCube probability) [1] | SD: sedative hypnotic (SmartCube probability) [1] | UN: uncharacterized CNS activity (SmartCube probability) [1] | FST: efficacious dose [2] | PCP: efficacious dose [3] | AMPH: efficacious dose [4] | minimal effective dose ([1]; MED = dose having 50% or more total activity in SmartCube) [mg/kg] | TST: efficacious dose [5]
CNC[C@@H]1OCCc2ccc3c(c21)OCO3 [Example 2, (R)-1-(6,9-dihydro-7H-[1,3]dioxolo[4,5-h]isochromen-9-yl)-N-methylmethanamine] | < 3 | + (LOQ≤ + <5%) | ++ (5%≤ ++ <25%) | ++ (5%≤ ++ <25%) | ++ (5%≤ ++ <25%) | +++ (25%≤ +++ <50%) | ++ (5%≤ ++ <25%) | ++ (5%≤ ++ <25%) | + (LOQ≤ + <5%) | +++ (25%≤ +++ <50%) | +++ (+++ = <1.0 mg/kg) | +++ (+++ = <1.0 mg/kg) | NE |  | 
CNC[C@@H]1OCCc2cccc(F)c21 [Example 26, (R)-1-(8-fluoroisochroman-1-yl)-N-methylmethanamine] |  | + (LOQ≤ + <5%) | ++ (5%≤ ++ <25%) | ++ (5%≤ ++ <25%) | ++ (5%≤ ++ <25%) | ++++ (50%≤ ++++) | + (LOQ≤ + <5%) | ++ (5%≤ ++ <25%) | ++ (5%≤ ++ <25%) | +++ (25%≤ +++ <50%) | +++ (+++ = <1.0 mg/kg) | +++ (+++ = <1.0 mg/kg) | + (+ = 10-30 mg/kg) | < 3 | NE
